Source: patent publication US8536210B2, “Compounds for inhibiting semicarbazide-sensitive amine oxidase (SSAO)/vascular adhesion protein-1 (VAP-1) and uses thereof for treatment and prevention of diseases” (Semmelweis Egyetem, priority 2008, dated 2013)
Blank lines part the entries; values can stand above or below the molecule they belong to.

Legend:
[1] = target: human recombinant VAP-1 (SSAO/VAP-1 enzyme) (Homo sapiens (Human), UniProt Q16853); test: In vitro inhibition of SSAO activity on human recombinant VAP-1 (colorimetric, benzylamine substrate); type: biochemical; conditions: for IC50: recombinant SSAO/VAP-1 in CHO cell homogenate, 1 mM benzyl amine
Method: For determining the SSAO/VAP-1 activity, the colorimetric method described by Holt, A (Holt, A., Anal. Biochem. 244, 384, 1997) for monoamine oxidase and analogous enzymes was used. Recombinant SSAO/VAP-1 enzyme was expressed in Chinese Hamster Ovary cells (CHO). These cells and cell cultures have been described earlier (Smith, D. J. et al, J. Exp. Med. 188, 17, 1998). The cell homogenate was prepared as follows: a suspension was made of approximately 3.6×10^8 cells in 25 ml lysation buffer (150 mM NaCl, 10 mM Tris-base pH 7.2, 1.5 mM MgCl2, 1% NP40), that was stirred for 1 night and incubated at 4° C. The homogenate was centrifugated (18000 g). The supernatant was used directly afterwards for the measurement. SSAO/VAP-1 activity measurement was carried out as follows on 96 precisely microtitrated plates, a given amount of inhibitor was added to each. The amount of the inhibitors varied among the measurements, the final concentration being between 1 nM and 50 μM in general, in 20 μl aqueous total volume for all cases. Then 0.2 M potassium phosphate buffer (pH=7.6) was added, to obtain a total volume of 200 μl 50 μl freshly prepared chromogen solution was given, which contains 1 mM of vanillic acid, 500 μM 4-aminoantipyrin, 8 U/ml horse radish peroxidase, and such an amount of SSAO/VAP-1 containing CHO cell homogenate that causes a 0.6 A-490 per h change, the latter being in the linear coherence scope of the method. The plates were incubated for 30 min at 37° C. and the background absorbance was measured at 490 nm by a Wallac Victor II apparatus. For starting the enzyme reaction, 20 μl 10 mM benzyl amine solution was added, the final concentration of which was therefore 1 mM. The plates were reincubated at 37° C. for 1 h. The increase in the absorbance showing the SSAO/VAP-1 activity was measured at 490 nm. The inhibition was calculated in the % of the control absorbance corrected with the background absorbance, IC50 values were calculated using GraphPad Prism.

[2] = test system: carrageenan-induced rat paw edema; test: Inhibition of carrageenan-induced rat paw edema; type: in vivo
From the text: Carrageenan-induced rat paw edema has been extensively used in the evaluation of anti-inflammatory effects of various agents and it is useful in assessing the efficacy of compounds to alleviate acute inflammation (Whiteley P E, Dalrymple S A (1998) Models of inflammation: carrageenan-induced paw edema in the rat, in Current Protocols in Pharmacology (Enna S J, Williams M, Ferkany J W, Kenakin T, Porsolt R E, Sullivan J P eds) pp 5.4.1-5.4.3, John Wiley & Sons, New York.). Edema in the paws was induced by injecting 0.1 ml of a 1% solution of carrageenan intraplantary. […] […] Inhibitory effects are expressed in % values.

[3] = test system: acetic acid induced writhing syndrome; test: Inhibition of acetic acid induced writhing on mice; type: in vivo; conditions: 20 minutes prior to acetic acid
Method: The method described by Van der Wende (Van der Vende C, Margolin S, Fed. Proc., 15, 494, 1956) with the modifications of Witkin et al. (Witkin L B et al, J. Pharm. Exp. Ther., 133, 400, 1961) was applied. 0.2 ml of a 0.6% acetic acid solution was injected intraperitoneally, causing a typical writhing syndrome in 90% of the animals. Compounds of the invention were administered subcutaneously, 20 minutes prior to acetic acid exposure. Antianalgetic effect was determined by the formula, which is shown below, and is expressed in % values. (number of writhings in treatment group (5′)/number of writhings in control group (5′))×100

Chain of human recombinant VAP-1 (SSAO/VAP-1 enzyme) (Q16853 whole entry): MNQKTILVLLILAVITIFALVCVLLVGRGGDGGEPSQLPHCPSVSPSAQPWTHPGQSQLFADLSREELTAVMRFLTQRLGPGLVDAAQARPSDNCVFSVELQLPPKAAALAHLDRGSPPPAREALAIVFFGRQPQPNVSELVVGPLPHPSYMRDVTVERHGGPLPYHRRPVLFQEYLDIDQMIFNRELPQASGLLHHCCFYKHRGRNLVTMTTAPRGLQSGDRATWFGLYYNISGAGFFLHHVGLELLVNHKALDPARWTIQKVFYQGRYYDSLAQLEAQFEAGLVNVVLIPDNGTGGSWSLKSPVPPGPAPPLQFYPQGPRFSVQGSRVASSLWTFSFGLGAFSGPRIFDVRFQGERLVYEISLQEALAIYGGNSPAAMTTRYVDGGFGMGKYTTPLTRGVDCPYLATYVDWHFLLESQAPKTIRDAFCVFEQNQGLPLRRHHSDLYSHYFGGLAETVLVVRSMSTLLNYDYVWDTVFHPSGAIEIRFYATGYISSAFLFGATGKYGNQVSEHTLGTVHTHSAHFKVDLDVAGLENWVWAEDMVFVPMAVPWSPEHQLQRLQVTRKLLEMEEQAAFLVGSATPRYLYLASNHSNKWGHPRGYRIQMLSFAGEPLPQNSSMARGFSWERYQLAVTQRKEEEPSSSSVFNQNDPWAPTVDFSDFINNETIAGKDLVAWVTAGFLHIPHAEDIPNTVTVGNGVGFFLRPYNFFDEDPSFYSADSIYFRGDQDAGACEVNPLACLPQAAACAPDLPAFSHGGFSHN

IC50 [1]: 102 µM
melting point: 110 °C
SMILES: COc1cccc(C=NO)c1C [Compound 1, 3-Methoxy-2-methylbenzaldehyde oxime]

inhibition at 50 µM ([1]; at 50 μM): 32%
SMILES: ON=Cc1cccc2cccc(N3CCCC3)c12 [Compound 5, 8-Pyrrolidino-1-naphthaldehyde oxime]

IC50 [1]: 4.3 µM
SMILES: ON=Cc1c(O)ccc2c1OCO2 [Compound 6, 5-Hydroxy-1,3-benzodioxole-4-carbaldehyde oxime]

IC50 [1]: 40 µM
SMILES: CCOc1ccc2c(c1C=NO)OCO2 [Compound 7, 5-Ethoxy-1,3-benzodioxole-4-carbaldehyde oxime]

IC50 [1]: 95 µM
SMILES: C=CCOc1ccc2c(c1C=NO)OCO2 [Compound 8, 5-(Allyloxy)-1,3-benzodioxole-4-carbaldehyde oxime]

IC50 [1]: 14.9 µM
SMILES: ON=Cc1c(Br)ccc2c1OCO2 [Compound 9, 5-Bromo-1,3-benzodioxole-4-carbaldehyde oxime]
Inhibition of rat paw edema in % ([2]; 7.5 mg/kg s.c., 60 min): 63 ± 7 %
Inhibition of rat paw edema in % ([2]; 7.5 mg/kg s.c., 120 min): 62 ± 6 %
Inhibition of rat paw edema in % ([2]; 7.5 mg/kg s.c., 180 min): 66 ± 5 %
Inhibition of rat paw edema in % ([2]; 15 mg/kg s.c., 60 min): 53 ± 5 %
Inhibition of rat paw edema in % ([2]; 15 mg/kg s.c., 120 min): 52 ± 3 %
Inhibition of rat paw edema in % ([2]; 15 mg/kg s.c., 180 min): 66 ± 7 %
Inhibition of rat paw edema in % ([2]; 30 mg/kg p.o., 60 min): 0%
Inhibition of rat paw edema in % ([2]; 30 mg/kg p.o., 120 min): 5 ± 1%
Inhibition of rat paw edema in % ([2]; 30 mg/kg p.o., 180 min): 0%
Inhibition of rat paw edema in % ([2]; 30 mg/kg s.c., 60 min): 54 ± 6 %
Inhibition of rat paw edema in % ([2]; 30 mg/kg s.c., 120 min): 40 ± 5 %
Inhibition of rat paw edema in % ([2]; 30 mg/kg s.c., 180 min): 50 ± 5 %
Inhibition of writhing syndrome in % ([3]; 15 mg/kg s.c.): 84 ± 8 %
Inhibition of writhing syndrome in % ([3]; 30 mg/kg s.c.): 80 ± 7 %

inhibition at 500 µM [1]: 35%
SMILES: CC1Oc2ccc(Br)c(C=NO)c2O1 (centres unmarked) [Compound 10, 5-Bromo-2-methyl-1,3-benzodioxole-4-carbaldehyde oxime]

IC50 [1]: 180 µM
SMILES: ON=Cc1ccccc1-c1ccc2c(c1C=NO)OCO2 [Compound 12, 5-{2-[(hydroxyimino)methyl]phenyl}-1,3-benzodioxole-4-carbaldehyde oxime]

SMILES: CCOc1c(C=NO)c(=O)n(C)c(=O)n1C [Compound 16, 6-Ethoxy-1,3-dimethyl-2,4-dioxo-1,2,3,4-tetrahydropyrimidine-5-carbaldehyde oxime]
Inhibition of rat paw edema in % ([2]; 30 mg/kg s.c., 60 min): 8 ± 1%
Inhibition of rat paw edema in % ([2]; 30 mg/kg s.c., 120 min): 19 ± 2%
Inhibition of rat paw edema in % ([2]; 30 mg/kg s.c., 180 min): 31 ± 4%
Inhibition of writhing syndrome in % ([3]; 15 mg/kg s.c.): 86 ± 7 %
Inhibition of writhing syndrome in % ([3]; 30 mg/kg s.c.): 96 ± 6 %

IC50 [1]: 30 µM
SMILES: COc1c(C=NO)c(=O)n(C)c(=O)n1C [Compound 17, 6-Methoxy-1,3-dimethyl-2,4-dioxo-1,2,3,4-tetrahydropyrimidine-5-carbaldehyde oxime]

IC50 [1]: 18 µM
SMILES: CCCOc1c(C=NO)c(=O)n(C)c(=O)n1C [Compound 18, 1,3-Dimethyl-2,4-dioxo-6-propoxy-1,2,3,4-tetrahydropyrimidine-5-carbaldehyde oxime]

IC50 [1]: 29 µM
SMILES: CCOc1c(C=NOC)c(=O)n(C)c(=O)n1C [Compound 19, 6-Ethoxy-1,3-dimethyl-2,4-dioxo-1,2,3,4-tetrahydropyrimidine-5-carbaldehyde O-methyloxime]

IC50 [1]: 58 µM
SMILES: CCCSc1c(C=NO)c(=O)n(C)c(=O)n1C [Compound 21, 1,3-Dimethyl-2,4-dioxo-6-(propylthio)-1,2,3,4-tetrahydropyrimidine-5-carbaldehyde oxime]

IC50 [1]: 48 µM
SMILES: CSc1c(C=NO)c(=O)n(C)c(=O)n1C [Compound 22, 1,3-Dimethyl-6-(methylthio)-2,4-dioxo-1,2,3,4-tetrahydropyrimidine-5-carbaldehyde oxime]
Inhibition of rat paw edema in % ([2]; 7.5 mg/kg s.c., 60 min): 15 ± 2%
Inhibition of rat paw edema in % ([2]; 7.5 mg/kg s.c., 120 min): 55 ± 5 %
Inhibition of rat paw edema in % ([2]; 7.5 mg/kg s.c., 180 min): 60 ± 5 %
Inhibition of rat paw edema in % ([2]; 15 mg/kg s.c., 60 min): 60 ± 6 %
Inhibition of rat paw edema in % ([2]; 15 mg/kg s.c., 120 min): 63 ± 7 %
Inhibition of rat paw edema in % ([2]; 15 mg/kg s.c., 180 min): 65 ± 7 %
Inhibition of rat paw edema in % ([2]; 30 mg/kg p.o., 60 min): 0%
Inhibition of rat paw edema in % ([2]; 30 mg/kg p.o., 120 min): 21 ± 2%
Inhibition of rat paw edema in % ([2]; 30 mg/kg p.o., 180 min): 21 ± 2%
Inhibition of rat paw edema in % ([2]; 30 mg/kg s.c., 60 min): 58 ± 7 %
Inhibition of rat paw edema in % ([2]; 30 mg/kg s.c., 120 min): 54 ± 5 %
Inhibition of rat paw edema in % ([2]; 30 mg/kg s.c., 180 min): 72 ± 8 %
Inhibition of writhing syndrome in % ([3]; 5 mg/kg s.c.): 70 ± 5 %
Inhibition of writhing syndrome in % ([3]; 15 mg/kg s.c.): 100%

IC50 [1]: 111 µM
SMILES: CCSc1c(C=NO)c(=O)n(C)c(=O)n1C [Compound 23, 6-(Ethylthio)-1,3-dimethyl-2,4-dioxo-1,2,3,4-tetrahydropyrimidine-5-carbaldehyde oxime]

IC50 [1]: 106 µM
SMILES: Cn1c(Sc2ccccc2)c(C=NO)c(=O)n(C)c1=O [Compound 24, 1,3-Dimethyl-2,4-dioxo-6-(phenylthio)-1,2,3,4-tetrahydropyrimidine-5-carbaldehyde oxime]

IC50 [1]: 113 µM
SMILES: CCSc1c(C=NOC)c(=O)n(C)c(=O)n1C [Compound 25, 6-(Ethylthio)-1,3-dimethyl-2,4-dioxo-1,2,3,4-tetrahydropyrimidine-5-carbaldehyde O-methyloxime]

IC50 [1]: 41 µM
SMILES: C=CCN(C)c1c(C=NO)c(=O)n(C)c(=O)n1C [Compound 27, 6-[Allyl(methyl)amino]-1,3-dimethyl-2,4-dioxo-1,2,3,4-tetrahydropyrimidine-5-carbaldehyde oxime]

IC50 [1]: 240 µM
SMILES: Cn1ncc(N2CCCCC2)c(/C=N/O)c1=O [Compound 29, E-2-Methyl-3-oxo-5-piperidino-2,3-dihydropyridazine-4-carbaldehyde oxime]

IC50 [1]: 263 µM
SMILES: COc1ccc(Cn2ncc(N3CCOCC3)c(/C=N/O)c2=O)cc1 [Compound 32, E-2-(4-Methoxybenzyl)-5-morpholino-3-oxo-2,3-dihydropyridazine-4-carbaldehyde oxime]

inhibition at 500 µM [1]: 55%
SMILES: Cn1nc2c(c(C=NO)c1=O)N1CCCC1CO2 (centres unmarked) [Compound 35, 3-Methyl-2-oxo-2,3,6a,7,8,9-hexahydro-6H-pyridazino[3,4-b]pyrrolo[1,2-d][1,4]oxazine-1-carbaldehyde oxime]

inhibition at 500 µM [1]: 31%
SMILES: Cn1ncc(N2CCCC2)c(-c2ccccc2C=NO)c1=O [Compound 38, 2-(2-Methyl-3-oxo-5-pyrrolidino-2,3-dihydropyridazin-4-yl)benzaldehyde oxime]

IC50 [1]: 3.5 µM
SMILES: ON=CCCc1nc(-c2ccccc2)c(-c2ccccc2)o1 [Compound 40, 3-(4,5-Diphenyl-1,3-oxazol-2-yl)propanal oxime]

SMILES: COc1ccc2c(c1)c(CC(=O)O)c(C)n2C(=O)c1ccc(Cl)cc1 [Indomethacin, reference compound]
Inhibition of rat paw edema in % ([2]; 2.5 mg/kg p.o., 60 min): 32 ± 2 %
Inhibition of rat paw edema in % ([2]; 2.5 mg/kg p.o., 120 min): 51 ± 4 %
Inhibition of rat paw edema in % ([2]; 2.5 mg/kg p.o., 180 min): 53 ± 5 %
